Values of other authors, collected in PMC12399788, “A Comparison of the Molecular Pharmacological Properties of Current Short, Long, and Ultra‐Long‐Acting β2‐Agonists Used for Asthma and COPD” (Pharmacology Research & Perspectives, 2025).

Experiments:
conscious guinea pigs = settings: equipotent nebulized agents
guinea pig tracheal = system: guinea pig tracheal; design: method as in PMID 20402514; settings: guinea pig tracheal studies
human lung (mast cells) = settings: histamine release from human lung (mast cells)

Compound | duration of action (human trachea) | duration of action relative to salbutamol (human trachea) | bronchodilation duration (conscious guinea pigs) | duration (guinea pig tracheal) | time by which response was lost (human lung (mast cells)) | bronchodilation at 6 h (conscious guinea pigs; 6 h) | response remaining (% maximal) (human lung (mast cells); at 20 h)
COc1ccc(CC(C)NCC(O)c2ccc(O)c(NC=O)c2)cc1 (centres unmarked) [Formoterol, formoterol] | 34 min | 4.5 times longer | 3 h | 1.2 h |  |  | 
CCc1cc2c(cc1CC)CC(NC[C@H](O)c1ccc(O)c3[nH]c(=O)ccc13)C2 [Indacaterol, indacaterol] |  |  |  | over 12 h |  |  | 
CC(C)(C)NCC(O)c1ccc(O)c(CO)c1 (centres unmarked) [Salbutamol, salbutamol] | 7.6 min |  | less than 1.5 h | 0.9 h | ≤ 4 h |  | 
OCc1cc(C(O)CNCCCCCCOCCCCc2ccccc2)ccc1O (centres unmarked) [Salmeterol, salmeterol] |  |  |  |  |  | no reduction | 75%
